Test results reported in publication PMC10644722, “Discovery of inhibitors of protein tyrosine phosphatase 1B contained in a natural products library from Mexican medicinal plants and fungi using a combination of enzymatic and in silico methods**” (Frontiers in Pharmacology, 2023).
“And” between values parts separate entries of the source, which are not always exact repeats. Identical values can stand only once. Like-named read-outs stand apart in the source and are kept apart here.

Target: T1, hPTP1B1-400 (Homo sapiens, UniProt P18031)
T1 sequence (P18031 1-400): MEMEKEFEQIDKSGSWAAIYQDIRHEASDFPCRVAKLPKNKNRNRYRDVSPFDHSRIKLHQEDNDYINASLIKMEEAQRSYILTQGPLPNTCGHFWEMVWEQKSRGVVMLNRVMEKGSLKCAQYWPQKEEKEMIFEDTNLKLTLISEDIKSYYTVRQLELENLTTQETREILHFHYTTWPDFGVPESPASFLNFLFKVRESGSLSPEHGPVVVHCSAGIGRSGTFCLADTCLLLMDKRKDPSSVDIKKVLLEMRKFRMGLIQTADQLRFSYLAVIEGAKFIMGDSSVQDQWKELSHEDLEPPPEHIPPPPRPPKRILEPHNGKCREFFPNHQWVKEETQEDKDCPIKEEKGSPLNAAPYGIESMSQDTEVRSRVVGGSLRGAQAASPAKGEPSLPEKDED
Experiment: PTP1B inhibition assay (spectrophotometric, 4-nitrophenyl phosphate)
Format: biochemical
Settings: for ΔA, activity difference between UA and the compound: absolute pIC50 difference against ursolic acid
Method: The inhibitory activity was determined as a percentage compared to the blank (Buffer) according to the following equation: %InhibitionPTP1B=1−A405s/A405b×100%, (1) where A405(s) is the ΔA of the sample (At20 − At0), A405(b) is the ΔA of the blank obtained in the same manner as that of the sample. Using the data obtained, the enzyme inhibition curve was plotted, for which the average percentage of inhibition was plotted as a function of the inhibitor concentration.

[1] = Hill1 model fit, Origin 8.0, axis C (mM), read-out: k of the IC50 curve
[2] = enzyme 66 nM, 4-NP 0.125 mM, Tris-HCl pH 6.8, 20 min, room temperature, read-out: IC50
[3] = negative log of the IC50 in Molar
[4] = DoseResp model fit, Origin 8.0, axis C (mM), read-out: LOGx0 of the IC50 curve
[5] = IC50 (μM), enzyme 66 nM, 4-NP 0.125 mM, Tris-HCl pH 6.8, 20 min, room temperature
[6] = LOGx0 of the IC50 curve, DoseResp model fit, Origin 8.0, axis C (mM)
[7] = pIC50, negative log of the IC50 in Molar
[8] = negative log of the IC50 in Molar, read-out: pIC50 (converted)

Row | IC50 [8] [mM] | Molecule | IC50 [1] [mM] | ΔA, activity difference between UA and the compound | IC50 [2] [mM] | pIC50 [3] | IC50 [4] [mM] | %I (0.02 mM compound) [%] | %I (1 mM compound) [%] | IC50 [5] [mM] | IC50 [6] [mM] | IC50 [7] [mM]
1 | – | 4-Hydroxy-3,3',5-trimetoxybibencyl [Compound 77] | 0.221 ± 0.147 | 1.0 | 0.221 ± 0.0001 | 3.66 | – | – | – | – | – | –
2 | – | 5,7-Diacetylchrysin [Compound 54] | 0.362 ± 0.0378 | 1.2 | 0.3618 ± 4e-05 | 3.44 | – | – | – | – | – | –
3 | – | 7-Methylluteolin [Compound 50] | – | 1.3 | 0.4349 ± 8e-06 | 3.36 | 0.435 ± 0.00856 | – | – | – | – | –
4 | – | COc1cc(OC2OC(CO)C(O)C(O)C2O)c2c(-c3ccc(O)c(O)c3)cc(=O)oc2c1 [Compound 2, 5-O-(β-D-Glucopyranosyl)-7-methoxy-3'-4'-dihydroxy-4-phenylcoumarin] | – | 0.3 | – | – | – | 42.48 ± 1.16 | 95.13 ± 0.54 | 0.0404 ± 2e-05 | 0.0404 ± 0.0232 | 0.0407
5 | 0.0575 | COc1cc(-c2cc(=O)c3c(O)c(O)c(OC)cc3o2)ccc1O [Compound 5, 4',5,6-Trihydroxy-3',7-dimethoxyflavone] | – | 0.42 and 0.4 | 0.0573 ± 2e-05 | – | 0.0573 ± 0.0213 | – | – | – | – | –
6 | 0.0832 | C=C(C)[C@H]1COc2c(C)cc3oc4c(C[C@H](O)C(C)(C)O)ccc(O)c4c(=O)c3c2[C@@H]1O [Compound 7, Tajixanthone hydrate] | – | 0.6 | 0.0832 ± 1e-06 | – | 0.0832 ± 0.00124 | – | – | – | – | –
7 | 0.0891 | O=C(OCC1OC(Oc2c(-c3ccc(O)c(O)c3)oc3cc(O)cc(O)c3c2=O)C(O)C(O)C1O)c1ccccc1 [Compound 8, Quercetin-3-O-(6''-benzoyl)-β-D-galactoside] | – | 0.6 | 0.0888 ± 5e-05 | – | 0.0888 ± 0.0504 | – | – | – | – | –
8 | 0.0891 | COc1cc(C)c2c(=O)c3c(O)cc(OC)cc3oc2c1 [Compound 9, Lichexanthone] | – | 0.6 | 0.0888 ± 5e-06 | – | 0.0888 ± 0.00531 | – | – | – | – | –
9 | – | CC(C)(O)CCC(=O)[C@](C)(O)[C@H]1[C@H](O)C[C@@]2(C)[C@@H]3CC=C4[C@@H](C[C@H](O)[C@@H](O[C@@H]5O[C@H](CO)[C@@H](O)[C@H](O)[C@H]5O)C4(C)C)[C@]3(C)C(=O)C[C@]12C [Compound 14, 3-O-β-D-Glucopyranosyl-23,24-dihydrocucurbitacin F] | – | 1.2 | 0.3583 ± 1.2e-05 | 3.45 | 0.358 ± 0.0127 | – | – | – | – | –
10 | – | CC(=O)OC(C)(C)/C=C/C(=O)[C@](C)(O)[C@H]1[C@H](O)C[C@@]2(C)[C@@H]3CC=C4[C@@H](C[C@H](O[C@@H]5O[C@H](CO)[C@@H](O)[C@H](O)[C@H]5O)C(=O)C4(C)C)[C@]3(C)C(=O)C[C@]12C [Compound 15, Arvenin I] | 0.564 ± 0.041 | 1.4 | 0.5643 ± 4.1e-05 | 3.25 | – | – | – | – | – | –
11 | – | CC(=O)OC[C@H]1O[C@@H](Oc2cc(O)cc3oc(=O)cc(-c4ccc(O)cc4)c23)[C@H](O)[C@@H](O)[C@H]1O [Compound 18, 6''-O-Acetyl-5-O-β-D-galactopyranosyl-7,4'-dihydroxy-4-phenylcoumarin] | 0.349 ± 0.0341 | 1.2 | 0.3486 ± 3e-05 | 3.46 | – | – | – | – | – | –
12 | – | Oc1cccc(CCc2ccc3c(c2)OCO3)c1 [Compound 25] | – | 1.5 | 0.6621 ± 0.00013 | 3.18 | 0.662 ± 0.134 | – | – | – | – | –
13 | – | C=C1C(=O)O[C@@H]2C[C@@]3(C)CCC=C(C)[C@@H]3C[C@H]12 [Compound 32, Isoalloalantolactone] | – | 1.3 | 0.4432 ± 5e-05 | 3.35 | 0.443 ± 0.0513 | – | – | – | – | –
14 | 0.245 | COc1cc(O)cc(CCc2cccc(O)c2)c1 [Compound 34, Batatasin III] | – | 1.1 | 0.2474 ± 7e-05 | – | 0.247 ± 0.0675 | – | – | – | – | –
15 | 0.427 | CN1C(=O)c2ccccc2-n2c(nc3ccccc3c2=O)[C@@H]1Cc1ccccc1 [Compound 40, Benzomalvin A] | – | 1.3 | 0.4242 ± 5e-06 | – | 0.424 ± 0.00536 | – | – | – | – | –
16 | 0.646 | CCCCCCCCCCCCCCCCCCCCOC(=O)C=Cc1ccc(O)c(OC)c1 [Compound 43, Eicosyl 4-hydroxy-3-methoxy-cinnamate] | – | 1.5 | 0.6483 ± 0.00013 | – | 0.648 ± 0.131 | – | – | – | – | –
17 | – | COc1ccc([C@H]2OC[C@H]3[C@@H]2CO[C@@H]3c2ccc3c(c2OC)OCO3)cc1OC [Compound 47, 2'-Methoxykobusin] | 0.125 ± 0.00914 | 0.8 | 0.1253 ± 9e-06 | 3.90 | – | – | – | – | – | –
18 | – | C/C(=C/CC[C@H](C)[C@@H]1CC[C@]2(C)C3=CC[C@H]4C(C)(C)[C@H](O)CC[C@]4(C)[C@H]3CC[C@@]12C)C(=O)O [Compound 49, 3α-Hydroxymasticadienonic acid] | – | 0.8 | 0.1507 ± 5e-06 | 3.82 | 0.151 ± 0.0053 | – | – | – | – | –
19 | 0.851 | O=c1c(O[C@@H]2O[C@H](CO)[C@H](O)[C@H](O)[C@H]2O)c(-c2ccc(O)cc2)oc2cc(O)cc(O)c12 [Compound 51, Trifolin] | – | 1.6 | 0.859 ± 0.0003 | – | 0.859 ± 0.0259 | – | – | – | – | –
20 | 0.309 | O=C1C[C@@H](c2ccccc2)Oc2cc(O)cc(O)c21 [Compound 53, Pinocembrin] | – | 1.1 | 0.3062 ± 2e-05 | – | 0.306 ± 0.0184 | – | – | – | – | –
21 | 0.891 | C[C@H]1C(=O)CC[C@@H]2[C@]1(C)CC[C@H]1[C@@]2(C)CC[C@@]2(C)[C@@H]3CC(C)(C)CC[C@]3(C)CC[C@]12C [Compound 56, Friedelin] | – | 1.6 and 1.61 | 0.8878 ± 4e-05 | – | 0.888 ± 0.0408 | – | – | – | – | –
22 | – | COc1cc(=O)oc2c(O[C@@H]3O[C@H](CO)[C@@H](O)[C@H](O)[C@H]3O)ccc(C)c12 [Compound 63, 8-β-D-glucopyranosyloxy-4-methoxy-5-methyl-coumarin] | – | 0.9 | 0.1657 ± 2e-05 | 3.78 | 0.166 ± 0.0177 | – | – | – | – | –
23 | – | CC(=O)OC[C@H]1O[C@@H](Oc2cc(O)cc3oc(=O)cc(-c4ccc(O)c(O)c4)c23)[C@H](O)[C@@H](O)[C@H]1O [Compound 67, 6''-O-acetyl-5-O-β-D-galactopyranosyl-7,3',4'-trihydroxy-4-phenylcoumarin] | – | 1.1 | 0.2543 ± 0.0002 | 3.59 | 0.254 ± 0.203 | – | – | – | – | –
24 | – | COc1cc(O[C@@H]2O[C@H](CO[C@@H]3OCC(O)(CO)[C@H]3O)[C@@H](O)[C@H](O)[C@H]2O)c2c(-c3ccc(O)c(O)c3)cc(=O)oc2c1 (stereo partly drawn) [Compound 73, 5-O-β-D-Apiofuranosyl-(1→6)-β-D-glucopyranosyl-7-metoxi-3'-4'-dihydroxy-4-phenylcoumarin] | – | 1.2 | 0.3586 ± 7e-05 | 3.45 | 0.359 ± 0.0682 | – | – | – | – | –
25 | – | O=C(O[C@@H]1Cc2c(O)cc(O)cc2O[C@@H]1c1ccc(O)c(O)c1)c1cc(O)c(O)c(O)c1 [Compound 82, (-)-Epicatechin 3-O-gallate] | 0.142 ± 0.00656 | 0.8 | 0.1424 ± 7e-06 | 3.85 | – | – | – | – | – | –
26 | – | CC[C@H](/C=C/[C@@H](C)[C@H]1CC[C@H]2C3=CC[C@H]4C[C@@H](OC(C)=O)CC[C@]4(C)[C@H]3CC[C@]12C)C(C)C [Compound 85, α-Spinasterol acetate] | – | 1.1 | – | – | – | – | – | 0.2772 ± 1e-05 | 0.277 ± 0.0114 | 0.275

Row | Molecule | IC50 [8] [mM] | IC50 [1] [mM] | ΔA, activity difference between UA and the compound | IC50 [2] [mM] | pIC50 [3] | IC50 [4] [mM] | %I (0.02 mM compound) [%] | %I (1 mM compound) [%] | IC50 [5] [mM] | IC50 [6] [mM] | IC50 [7] [mM]
27 | CC(=CCCC(C)C1CCC2(C)C3=CCC4C(C)(C)C(=O)CCC4(C)C3CCC12C)C(=O)O (centres unmarked) [Compound 4, Masticadienonic acid] | 0.049 | – | 0.4 | 0.0491 ± 4e-06 | – | 0.0491 ± 0.00475 | – | – | – | – | –
28 | CC(C)(O)C(O)C1CC(C2CCC3(C)C4=CCC5C(C)(C)C(=O)CCC5(C)C4CCC23C)C(O)O1 (centres unmarked) [Compound 10, Melianodiol] | 0.0912 | – | 0.6 | 0.0921 ± 4e-05 | – | – | – | – | – | – | –
29 | COc1c(O)cc2cc(OC)c3cc(O)ccc3c2c1OC [Compound 41, Gymnopusin] | 0.427 | – | 1.3 | 0.4314 ± 1e-05 | – | 0.431 ± 0.0111 | – | – | – | – | –
30 | C=C(C)C(C)(C)CCC(C)C1CCC2(C)C3CCC4C(C)(CCC(O)C4(C)C)C3=CCC12C (stereo not drawn) [Compound 64, 5α-lanosta-24,24-dimethyl-9(11),25-dien-3β-ol] | 0.398 | – | 1.3 | 0.3985 ± 3e-05 | – | 0.399 ± 0.025 | – | – | – | – | –
31 | CCC(C=CC(C)C1CCC2C3=CCC4CC(O)CCC4(C)C3CCC21C)C(C)C (stereo not drawn) [Compound 84, α-Spinasterol] | 1 | – | 1.7 and 1.66 | 0.9891 ± 0.00014 | – | 0.989 ± 0.137 | – | – | – | – | –
